Test results reported in US20120245155A1, “FUSED HETEROCYCLIC COMPOUND HAVING AMINO GROUP” (Shionogi & Co., Ltd., priority 2009, published 2012).

Legend:
Recombinant human BACE1 = biological target: T1, Recombinant human BACE1 (Homo sapiens, UniProt P56817); test: Assay of BACE 1 inhibiting activity; type: biochemical; settings: Recombinant human BACE1 7.4 nmol/L, substrate peptide 18 nmol/L, pH 5.0, 30° C., 3 hours; read-out: 50% inhibitory concentration against the enzymatic activity (IC50)
T1 construct: purchased R&D Systems
Procedure: 48.5 μL of substrate peptide solution (Biotin-XSEVNLDAEFRHDSGC-Eu: X═ε-amino-n-capronic acid, Eu=Europium cryptate) was added to each well of 96-hole half-area plate (a black plate: Costar), and after addition of 0.5 μl of the test compound (dissolved in […]) and 1 μl of Recombinant human BACE1 (R&D Systems), the reaction mixture was incubated at 30° C. for 3 hours. The substrate peptide was synthesized by reacting Cryptate TBPCOOH mono SMP (CIS bio international) with Biotin-XSEVNLDAEFRHDSGC (Peptide Institute, Inc.). The final concentrations of the substrate peptide and Recombinant human BACE1 were adjusted to 18 nmol/L and 7.4 nmol/L, respectively, and the reaction was performed in sodium acetate buffer (50 mmol/L sodium acetate, pH 5.0, 0.008% Triton X-100).
After the incubation for reaction, 50 μl of 8.0 μg/ml Streptavidin-XL665 (CIS bio international) dissolved in phosphate buffer (150 mmol/L K2 HPO4—KH2PO4, pH 7.0, 0.008% Triton X-100, 0.8 mol/L KF) was added to each well and left stand at 30° C. for an hour. After then, fluorescence intensity was measured (excitation wavelength: 320 nm, measuring wavelength: 620 nm and 665 nm) using Wallac 1420 multilabel counter (Perkin Elmer life sciences). Enzymatic activity was determined from counting ratio of each wavelength (10,000× Count 665/Count 620) and 50% inhibitory concentration against the enzymatic activity was calculated.

[1] = tested on: Neuroblastoma SH—SY5Y cells (SH/APPwt) with human wild-type β-APP excessively expressed; test: Measurement of β-amyloid (Aβ) production inhibitory effect in cell; type: cell-based; settings: 24 hours incubation, Amyloid β 1-40 by HTRF, read-out: amount needed to inhibit Aβ production by 50% (IC50)
Procedure: Neuroblastoma SH—SY5Y cells (SH/APPwt) with human wild-type p-APP excessively expressed therein were prepared at 8×10^5 cells/mL, and 150 μl portions thereof were inoculated into each well of a 96-well culture plate (Falcon). The cells were cultured for 2 hours at 37° C. in a 5% gaseous carbon dioxide incubator. Then, a solution which had been preliminarily prepared by adding and suspending the test compound (DMSO (dimethyl sulfoxide) solution) so as to be 2 μl/50 μl medium was added to the cell sap. Namely, the final DMSO concentration was 1%, and the amount of the cell culture was 200 μl. After the incubation was performed for 24 hours from the addition of the test compound, 100 μl of the culture supernatant was collected from each fraction. The amount of the Aβ in each fraction was measured.
The Aβ amount was measured as follows. 10 μl of a homogeneous time resolved fluorescence (HTRF) measurement reagent (Amyloid β 1-40 peptide; IBA Molecular Holding, S. A.) and 10 μl of the culture supernatant were put into a 384-well half area microplate (black microplate, Costar) and mixed with each other, and then left standing overnight at 4° C. while the light was shielded. Then, the fluorescence intensity (excitation wavelength: 337 nm, measurement wavelength: 620 nm and 665 nm) was measured with a Wallac 1420 multilabel counter (Perkin Elmer life sciences). The Aβ amount was determined from the count rate at each measurement wavelength (10000× Count 665/Count 620), and the amount needed to inhibit Aβ production by 50% (IC50) was calculated from at least six different dosages.

CYP1A2 = biological target: T2, CYP1A2 (Homo sapiens, UniProt P05177); test: CYP inhibition test (7-ethoxyresorufin O-deethylation); type: in vitro ADME; settings: pooled human hepatic microsome, test drug concentration 1, 5, 10, 20 μmol/L
T2 construct: enzyme, pooled human hepatic microsome 0.2 mg protein/mL; from tissue; host or cells: pooled human hepatic microsome
T2 sequence (P05177 1-516): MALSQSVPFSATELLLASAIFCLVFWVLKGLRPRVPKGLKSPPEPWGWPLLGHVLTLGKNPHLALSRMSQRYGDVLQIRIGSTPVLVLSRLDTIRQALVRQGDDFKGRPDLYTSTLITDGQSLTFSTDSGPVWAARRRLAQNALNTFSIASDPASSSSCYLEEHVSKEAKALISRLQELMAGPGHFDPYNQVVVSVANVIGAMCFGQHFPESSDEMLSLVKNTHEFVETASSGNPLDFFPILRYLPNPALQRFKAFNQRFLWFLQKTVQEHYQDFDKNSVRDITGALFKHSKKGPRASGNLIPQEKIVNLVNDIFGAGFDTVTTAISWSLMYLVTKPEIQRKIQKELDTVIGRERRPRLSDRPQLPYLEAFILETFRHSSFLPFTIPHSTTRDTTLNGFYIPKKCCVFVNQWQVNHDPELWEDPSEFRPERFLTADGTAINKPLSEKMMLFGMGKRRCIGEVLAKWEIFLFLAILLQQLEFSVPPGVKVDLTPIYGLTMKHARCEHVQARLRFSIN
Procedure: (§1) Using commercially available pooled human hepatic microsome, and employing, as markers, 7-ethoxyresorufin O-deethylation (CYP1A2), tolbutamide methyl-hydroxylation (CYP2C9), mephenyloin 4′-hydroxylation (CYP2C19), dextromethorphan O-demethylation (CYP2D6), and terfenadine hydroxylation (CYP3A4) as typical substrate metabolism reactions of human main five CYP enzyme forms (CYP1A2, 2C9, 2C19, 2D6, 3A4), an inhibitory degree of each metabolite production amount by a test compound was assessed. […] After the centrifugation at 3000 rpm for 15 minutes, resorufin (CYP1A2 metabolite) in the supernatant was quantified by a fluorescent multilabel counter and tolbutamide hydroxide (CYP2C9 metabolite), mephenyloin 4′ hydroxide (CYP2C19 metabolite), dextrorphan (CYP2D6 metabolite), and terfenadine alcohol (CYP3A4 metabolite) were quantified by LC/MS/MS. Addition of only DMSO being a solvent dissolving a drug to a reaction system was adopted as a control (100%), remaining activity (%) was calculated at each concentration of a test drug added as the solution and IC50 was calculated by reverse presumption by a logistic model using a concentration and an inhibition rate.

CYP3A4 [2] = biological target: T3, CYP3A4 (Homo sapiens, UniProt P08684); test: CYP inhibition test (terfenadine hydroxylation); type: in vitro ADME; parameters: enzyme, pooled human hepatic microsome 0.2 mg protein/mL; from tissue; host or cells: pooled human hepatic microsome; settings: pooled human hepatic microsome, test drug concentration 1, 5, 10, 20 μmol/L
Procedure: as §1

CYP2D6 = biological target: T4, CYP2D6 (Homo sapiens, UniProt P10635); test: CYP inhibition test (dextromethorphan O-demethylation); type: in vitro ADME; settings: pooled human hepatic microsome, test drug concentration 1, 5, 10, 20 μmol/L
T4 construct: enzyme, pooled human hepatic microsome 0.2 mg protein/mL; from tissue; host or cells: pooled human hepatic microsome
Procedure: as §1

CYP2C9 = biological target: T5, CYP2C9 (Homo sapiens, UniProt P11712); test: CYP inhibition test (tolbutamide methyl-hydroxylation); type: in vitro ADME; settings: pooled human hepatic microsome, test drug concentration 1, 5, 10, 20 μmol/L
T5 construct: enzyme, pooled human hepatic microsome 0.2 mg protein/mL; from tissue; host or cells: pooled human hepatic microsome
Procedure: as §1

CYP2C19 = biological target: T6, CYP2C19 (Homo sapiens, UniProt P33261); test: CYP inhibition test (mephenytoin 4'-hydroxylation); type: in vitro ADME; settings: pooled human hepatic microsome, test drug concentration 1, 5, 10, 20 μmol/L
T6 construct: enzyme, pooled human hepatic microsome 0.2 mg protein/mL; from tissue; host or cells: pooled human hepatic microsome
Procedure: as §1

[3] = Metabolism stability test; type: in vitro ADME; settings: human liver microsomes 0.5 mg protein/mL, 1 mmol/L NADPH, 37° C., 30 minutes; 0 minute = 100%
Procedure: Using commercially available pooled human hepatic microsomes, a test compound is reacted for a constant time, a remaining rate is calculated by comparing a reacted sample and an unreacted sample, thereby, a degree of metabolism in liver is assessed.
A reaction is performed (oxidative reaction) at 37° C. for 0 minute or 30 minutes in the presence of 1 mmol/L NADPH in 0.2 mL of a buffer (50 mmol/L Tris-HCl pH 7.4, 150 mmol/L potassium chloride, 10 mmol/L magnesium chloride) containing 0.5 mg protein/mL of human liver microsomes. After the reaction, 50 μL of the reaction solution is added to 100 μL of a methanol/acetonitrile=1/1 (v/v), mixed and centrifuged at 3000 rpm for 15 minutes. The test compound in the supernatant is quantified by LC/MS/MS, and a remaining amount of the test compound after the reaction is calculated, letting a compound amount at 0 minute reaction time to be 100%.

CYP3A4 [4] = biological target: T3, CYP3A4; test: CYP3A4 fluorescent MBI test; type: in vitro ADME; parameters: host or cells: Escherichia coli; settings: CYP3A4 expressed in Escherichia coli, substrate 7-BFC, pre-reaction 0 or 30 minutes
Procedure: The CYP3A4 fluorescent MBI test is a test of investigating enhancement of CYP3A4 inhibition of a compound by a metabolism reaction, and the test was performed using, as CYP3A4 enzyme expressed in Escherichia coli and employing, as an index, a reaction in which 7-benzyloxytrifluoromethylchmarin (7-BFC) is debenzylated by the CYP3A4 enzyme to produce a metabolite, 7-hydroxytrifluoromethylchmarin (HFC) emitting fluorescent light.
The reaction conditions were as follows: substrate, 5.6 μmol/L 7-BFC; pre-reaction time, 0 or 30 minutes; reaction time, 15 minutes; reaction temperature, 25° C. […]
An enzyme in a K-Pi buffer (pH 7.4) and a test drug solution as a pre-reaction solution were added to a 96-well plate at the composition of the pre-reaction, a part of it was transferred to another 96-well plate so that it was 1/10 diluted by a substrate in a K-Pi buffer, NADPH as a co-factor was added to initiate a reaction as an index (without preincubation) and, after a predetermined time of a reaction, acetonitrile/0.5 mol/L Tris(trishydroxyaminomethane)=4/1 was added to stop the reaction. […] For the plate on which each index reaction had been performed, a fluorescent value of 7-HFC which is a metabolite was measured with a fluorescent plate reader. […]

T1 sequence (P56817 46-501): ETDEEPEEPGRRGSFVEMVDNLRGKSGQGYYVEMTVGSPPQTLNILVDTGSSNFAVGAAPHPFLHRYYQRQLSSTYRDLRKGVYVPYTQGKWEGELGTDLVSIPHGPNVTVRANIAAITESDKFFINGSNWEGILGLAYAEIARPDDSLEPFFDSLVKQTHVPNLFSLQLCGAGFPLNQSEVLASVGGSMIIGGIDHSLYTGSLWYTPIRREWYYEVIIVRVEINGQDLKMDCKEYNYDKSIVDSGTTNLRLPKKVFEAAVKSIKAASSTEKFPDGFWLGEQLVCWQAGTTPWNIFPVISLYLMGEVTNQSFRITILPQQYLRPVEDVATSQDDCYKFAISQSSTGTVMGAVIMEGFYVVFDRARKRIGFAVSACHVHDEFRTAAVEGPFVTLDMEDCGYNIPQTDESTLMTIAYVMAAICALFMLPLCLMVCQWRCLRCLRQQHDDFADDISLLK
T3 sequence (P08684 whole entry): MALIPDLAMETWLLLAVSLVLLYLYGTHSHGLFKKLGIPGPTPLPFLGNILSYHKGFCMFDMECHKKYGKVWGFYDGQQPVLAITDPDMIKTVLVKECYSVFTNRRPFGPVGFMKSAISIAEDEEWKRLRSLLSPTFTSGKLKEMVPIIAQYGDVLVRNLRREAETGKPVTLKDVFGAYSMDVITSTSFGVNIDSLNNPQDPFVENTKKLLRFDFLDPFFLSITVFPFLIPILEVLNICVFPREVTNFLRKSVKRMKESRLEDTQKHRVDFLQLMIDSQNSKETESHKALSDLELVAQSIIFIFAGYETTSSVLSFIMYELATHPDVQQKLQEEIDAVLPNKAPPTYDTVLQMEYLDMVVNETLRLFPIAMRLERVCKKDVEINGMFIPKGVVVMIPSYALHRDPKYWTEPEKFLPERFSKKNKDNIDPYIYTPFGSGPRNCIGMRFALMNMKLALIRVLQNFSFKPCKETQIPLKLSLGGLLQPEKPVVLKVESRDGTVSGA
T4 sequence (P10635 whole entry): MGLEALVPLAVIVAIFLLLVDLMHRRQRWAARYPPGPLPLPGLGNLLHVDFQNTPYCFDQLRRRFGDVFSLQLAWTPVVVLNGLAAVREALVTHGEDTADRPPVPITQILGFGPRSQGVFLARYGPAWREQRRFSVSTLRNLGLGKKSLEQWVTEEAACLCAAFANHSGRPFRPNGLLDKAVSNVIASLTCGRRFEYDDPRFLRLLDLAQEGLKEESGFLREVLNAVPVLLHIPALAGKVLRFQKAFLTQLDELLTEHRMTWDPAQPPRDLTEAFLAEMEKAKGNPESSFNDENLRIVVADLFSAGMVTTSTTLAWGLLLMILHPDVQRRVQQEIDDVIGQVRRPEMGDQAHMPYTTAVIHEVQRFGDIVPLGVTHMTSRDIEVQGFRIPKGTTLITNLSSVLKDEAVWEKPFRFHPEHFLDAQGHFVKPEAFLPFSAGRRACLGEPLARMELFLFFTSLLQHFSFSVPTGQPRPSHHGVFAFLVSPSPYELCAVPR
T6 sequence (P33261 whole entry): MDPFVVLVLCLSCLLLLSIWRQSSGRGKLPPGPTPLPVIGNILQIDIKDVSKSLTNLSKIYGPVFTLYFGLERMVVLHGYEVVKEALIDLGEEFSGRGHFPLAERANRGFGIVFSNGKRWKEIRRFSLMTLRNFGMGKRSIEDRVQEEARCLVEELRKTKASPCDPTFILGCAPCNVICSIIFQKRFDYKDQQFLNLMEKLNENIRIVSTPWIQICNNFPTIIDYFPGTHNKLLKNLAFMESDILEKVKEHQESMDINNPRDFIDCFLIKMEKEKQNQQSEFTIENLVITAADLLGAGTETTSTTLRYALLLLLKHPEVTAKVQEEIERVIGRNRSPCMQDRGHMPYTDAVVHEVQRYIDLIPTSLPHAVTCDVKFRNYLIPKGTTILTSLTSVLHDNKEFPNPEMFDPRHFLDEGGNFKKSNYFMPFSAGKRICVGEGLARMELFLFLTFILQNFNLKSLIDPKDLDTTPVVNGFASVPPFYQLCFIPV
T5 sequence (P11712 whole entry): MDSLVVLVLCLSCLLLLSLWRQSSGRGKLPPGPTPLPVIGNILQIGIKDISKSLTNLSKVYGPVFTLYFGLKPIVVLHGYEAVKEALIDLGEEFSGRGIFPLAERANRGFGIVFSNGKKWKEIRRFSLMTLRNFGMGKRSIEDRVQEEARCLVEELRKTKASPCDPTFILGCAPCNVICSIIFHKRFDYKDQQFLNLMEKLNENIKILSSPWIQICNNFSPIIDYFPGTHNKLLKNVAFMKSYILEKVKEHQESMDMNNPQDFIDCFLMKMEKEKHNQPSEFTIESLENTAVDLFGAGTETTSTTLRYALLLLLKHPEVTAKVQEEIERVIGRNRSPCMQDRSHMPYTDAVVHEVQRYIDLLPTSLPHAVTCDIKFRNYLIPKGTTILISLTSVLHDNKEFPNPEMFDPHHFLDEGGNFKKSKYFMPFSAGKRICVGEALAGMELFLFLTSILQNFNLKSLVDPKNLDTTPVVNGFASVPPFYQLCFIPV

Compound	IC50 (Recombinant human BACE1)	IC50 [1]	also measured
C=C1SC(N)=NC2(c3cc(NC(=O)c4ccc(C#N)cn4)ccc3F)COCC12 (racemic) [Compound I-3]	0.029 µM	≤ 1 µM	
N#Cc1ccc(C(=O)Nc2ccc(F)c(C34COCC3COC(N)=N4)c2)nc1 (racemic) [Compound I-33]	≤ 1 µM	≤ 1 µM	IC50 (CYP1A2): > 20 µM; IC50 (CYP3A4 [2]): > 20 µM; IC50 (CYP2D6): > 20 µM; IC50 (CYP2C9): > 20 µM; IC50 (CYP2C19): > 20 µM
Cc1cnc(C(=O)Nc2ccc(F)c(C34COCC3COC(N)=N4)c2)cn1 (racemic) [Compound I-34]		≤ 1 µM	
COc1cnc(C(=O)Nc2ccc(F)c(C34COCC3COC(N)=N4)c2)cn1 (racemic) [Compound I-35]	≤ 1 µM	≤ 1 µM	
NC1=NC2(c3cc(NC(=O)c4ccc(Cl)cn4)ccc3F)COCC2CO1 (racemic) [Compound I-36]	≤ 1 µM	≤ 1 µM	
CC#CCOc1cnc(C(=O)Nc2ccc(F)c(C34COCC3COC(N)=N4)c2)cn1 (racemic) [Compound I-37]		0.001 µM	
N#Cc1ccc(C(=O)Nc2ccc(F)c(C34CCCC3COC(N)=N4)c2)nc1 (racemic) [Compound I-38]	≤ 1 µM	≤ 1 µM	
NC1=NC2(c3cc(-c4cccnc4F)ccc3F)CCCC2CO1 (racemic) [Compound I-40]		≤ 1 µM	
COc1cncc(-c2ccc(F)c(C34CCCC3COC(N)=N4)c2)c1 (racemic) [Compound I-41]		≤ 1 µM	

The next lines start with results.

IC50 (Recombinant human BACE1)	IC50 [1]	Compound	also measured
	≤ 1 µM	NC1=NC2(c3cc(-c4cccnc4F)ccc3F)COCC2CO1 (racemic) [Compound I-42]	remaining amount of the test compound after the reaction [3]: 94.7%
	≤ 1 µM	CNC(=O)c1ccc(-c2ccc(F)c(C34COCC3COC(N)=N4)c2)cn1 (racemic) [Compound I-43]	
	≤ 1 µM	COc1cncc(-c2ccc(F)c(C34COCC3COC(N)=N4)c2)c1 (racemic) [Compound I-44]	CYP3A4 MBI: difference of IC50 value with and without preincubation (CYP3A4 [4]): (−) (When the difference was 3 μM or less, the result was defined as (−))
	≤ 1 µM	NC1=NC2(c3cc(-c4cncc(Cl)c4)ccc3F)COCC2CO1 (racemic) [Compound I-45]	
	≤ 1 µM	NC1=NC2(c3cc(NC(=O)c4ccc(OC(F)F)cn4)ccc3F)CCCC2CO1 (centres unmarked) [Compound I-46]	
